# Test results reported in US5384128A, “Method of and compounds for treatment for cystic fibrosis” (University of Alabama Research Foundation, priority 1993, dated 1995).
# Experiments:
# [1] = test system: T84 cells; assay: 125I- efflux assay (Cl- channel activity), T84 cells; assay type: cell-based; details: for potency in stimulating 125I- efflux relative to DM: equimolar concentrations
# Text: (§1) Forskolin or cAMP-stimulated Cl^- channel activity is a standard measurement of the activity of Cl^- channels represented by CFTR, while ionomycin or Ca^++ ionophore-stimulated Cl^- channel activity is a measure of the activity of Ca^++ -regulated Cl^- channels which arc different from those represented by CFTR. […] In contrast Ca^++ -regulated Cl^- channels operate normally in CF cells and are opened by ionomycin just as they are in T84 cells.
# (§2) The cells employed were (1) T84 cells (ATCC Accession No. CCL 248) (2) CFPAC-1 cells (ATCC Accession No. CRL 1918) (a newly established continuous line of pancreatic duct adenocarcinoma cells from a CF patient which is homozygous for the deletion of phenylalanine in the 508 position of CFTR, the mutation found in 70% of CF patients), (3) clones of CFPAC-1 cells which have been transduced with a retroviral vector (PLJ) containing (PLJ-CFTR-CFPAC) or lacking (PLJ-CFPAC) cDNA for functional CFTR, and (4) 2CFSMEo-, a continuous cell line derived from the tracheal submucosal gland of a CF patient whose exact genotype is unknown but which expresses the phenotype of defective Cl^- channel permeability characteristic of CF.
# (§3) In general, cells were washed with 1 ml of efflux medium (140 mM NaCl, 1 mM Ca gluconate, 1 mM Mg gluconate, 5 mM KH2 PO4, 10 mM Tris-Hepes pH 7.4) four times and incubated with ^125 I- (3μl Na ^125 I=12 μC) in 1 ml of the same medium containing 5 mM D-glucose for 1 hour at 37° C. to load the cells with ^125 I. The cells were then washed quickly five times with 1 ml of the efflux medium at 22° C. to remove any ^125 I- that had not been taken up by the cells. One ml of the efflux medium at 22° C. was then added to initiate efflux and left in contact with the cells for 1 minute, before being removed and replaced with another 1 ml of medium. This replacement procedure was carried out 2-5 times before addition of the appropriate surfactant and/or agonist in 1 ml of the same medium to one culture dish (experimental) while to another dish 1 ml of medium without surfactant and/or agonist was added (control). Medium with or without surfactant and/or agonist was replaced at 0.5 minute intervals until the 10 minute time point when the replacement time was prolonged to 1 minute intervals. The samples of the replacement media were counted in a gamma counter to determine the amount of ^125 I- effluxing from the cells into the medium in each time interval. After 15 minutes when measurement of efflux was completed the cells were extracted for 30 minutes with 1 ml 0.2N NaOH, 0.15% SDS and the extract counted to determine the residual ^125 I- remaining in the cells.
# (§4) The data is expressed as ^125 I- remaining in the cells (set at 100% at the initiation of efflux) and plotted against the time of efflux in minutes and/or as the ln % of ^125 I- remaining in the cells, plotted against the time of efflux in minutes. Expressing the data in the latter form facilitates calculation of the apparent rate constant for ^125 I- efflux using the equation r=[ln (R1)-ln (R2)]/(t1-t2) where R1 and R2 are the percent of counts remaining in the cell layer at times t1 and t2 respectively.
# [2] = test system: PLJ-CFPAC-10; assay: 125I- efflux assay, CFPAC-1 cells transduced with vector lacking CFTR cDNA; assay type: cell-based, human
# Text: as §2
# as §3, with “This replacement procedure was carried out 2-5 times before addition of the appropriate surfactant and/or agonist in 1 ml of the same medium to one culture dish (experimental) while to another dish 1 ml of medium without surfactant and/or agonist was added (control). Medium with or without surfactant and/or agonist was replaced at 0.5 minute intervals until the 10 minute time point when the replacement time was prolonged to 1 minute intervals.” left out
# (§5) The data is expressed as ^125 I- remaining in the cells (set at 100% at the initiation of efflux) and plotted against the time of efflux in minutes and/or as the ln % of ^125 I- remaining in the cells, plotted against the time of efflux in minutes. […]
# [3] = test system: PLJ-CFTR-CFPAC-10; assay: 125I- efflux assay, CFPAC-1 cells transduced with wild-type CFTR cDNA; assay type: cell-based, human; details: vector containing wild-type CFTR cDNA (PLJ-CFTR-CFPAC-10)
# Text: as §2
# as §3, with “This replacement procedure was carried out 2-5 times before addition of the appropriate surfactant and/or agonist in 1 ml of the same medium to one culture dish (experimental) while to another dish 1 ml of medium without surfactant and/or agonist was added (control). Medium with or without surfactant and/or agonist was replaced at 0.5 minute intervals until the 10 minute time point when the replacement time was prolonged to 1 minute intervals.” left out
# as §5
# [4] = Effective dosage (general statement); assay type: cell-based; details: maltoside with alkyl chain of 12, 13 or 14 carbon atoms
# [5] = test system: T84 cells; details: human
# [6] = test system: CFPAC-1 cells; assay: 125I- efflux assay, CFPAC-1 cells; assay type: cell-based, human
# Text: as §2, §3, §4
# [7] = test system: 2CFSMEo-; assay: 125I- efflux assay, airway epithelial cell line of a CF patient; assay type: cell-based, human; details: 2CFSMEo- cells
# Text: as §2
# as §3, with “This replacement procedure was carried out 2-5 times before addition of the appropriate surfactant and/or agonist in 1 ml of the same medium to one culture dish (experimental) while to another dish 1 ml of medium without surfactant and/or agonist was added (control). Medium with or without surfactant and/or agonist was replaced at 0.5 minute intervals until the 10 minute time point when the replacement time was prolonged to 1 minute intervals.” left out
# as §5
# [8] = test system: CF cells; assay: 125I- efflux / Cl- channel opening in CF cells; assay type: cell-based
# Method: as §1
# In general, cells were washed with 1 ml of efflux medium (140 mM NaCl, 1 mM Ca gluconate, 1 mM Mg gluconate, 5 mM KH2 PO4, 10 mM Tris-Hepes pH 7.4) four times and incubated with ^125 I- (3μl Na ^125 I=12 μC) in 1 ml of the same medium containing 5 mM D-glucose for 1 hour at 37° C. to load the cells with ^125 I. The cells were then washed quickly five times with 1 ml of the efflux medium at 22° C. to remove any ^125 I- that had not been taken up by the cells. […] The samples of the replacement media were counted in a gamma counter to determine the amount of ^125 I- effluxing from the cells into the medium in each time interval. After 15 minutes when measurement of efflux was completed the cells were extracted for 30 minutes with 1 ml 0.2N NaOH, 0.15% SDS and the extract counted to determine the residual ^125 I- remaining in the cells.
# [9] = test system: CFPAC-1; details: CFPAC-1, homozygous ΔF508; cited from earlier work
# [10] = test system: CFTR in T84 cells; details: cited from earlier work
# [11] = test system: T84 cells; details: comparison statement; cited from earlier work
compound,measurement,setting,value
"CCCCCCCCCCCCO[C@@H]1O[C@H](CO)[C@@H](O[C@H]2O[C@H](CO)[C@@H](O)[C@H](O)[C@H]2O)[C@H](O)[C@H]1O [DM, dodecylmaltoside]",cause of 125I- efflux stimulation: cell lysis,[1]; T84 cells,not due to lysis of the cells
same,reversibility of response upon removal of the agent,[1]; T84 cells,reversible
same,"rate of 125I- efflux during exposure, compared to control rate","[1]; T84 cells, 100 μM or 200 μM DM",increased rate
same,"rate of 125I- efflux with DM remaining during efflux phase after preincubation, compared to same concentration without preincubation","[1]; T84 cells, 100 μM or 200 μM DM",comparable
same,rate of 125I- efflux after removal of agent,"[1]; T84 cells, 100 μM or 200 μM DM, after 2 min exposure",reverts to the control rate
same,"stimulation of 125I- efflux, dose dependence","[1]; T84 cells, 10-400 μM",dose-dependent stimulation
same,rate of 125I- efflux on further exposure to forskolin in presence of DM,"[1]; T84 cells, 80-100 μM DM plus 20 μM forskolin",additional increase
same,Cl- channel activity as measured by increased 125I- efflux,[2],stimulate
same,Cl- channel activity as measured by increased 125I- efflux,[3],stimulate
same,effective dosage,[4],10 to 400 µM
same,MNTC,[5],< 150 µM
"CCCCCCCCCCCCCCO[C@@H]1O[C@H](CO)[C@@H](O[C@@H]2O[C@@H](CO)[C@H](O)[C@@H](O)[C@@H]2O)[C@H](O)[C@H]1O (stereo in doubt) [tetra DM, tetradecylmaltoside]",potency as Cl- channel activator among alkylmaltosides tested,[1],most potent
same,cause of 125I- efflux stimulation: cell lysis,[1]; T84 cells,not due to lysis of the cells
same,"potency change on lengthening alkyl chain, DM as reference standard",[1]; T84 cells,markedly increases the potency
same,"stimulation of 125I- efflux, dose dependence","[1]; T84 cells, 10-100 μM",dose-dependent stimulation
same,potency in stimulating 125I- efflux relative to DM,[1]; T84 cells,more potent than DM
same,"increase in 125I- efflux, dose dependence",[6],dose-dependent increase
same,Cl- channel activity as measured by increased 125I- efflux,[2],stimulate
same,Cl- channel activity as measured by increased 125I- efflux,[3],stimulate
same,"stimulation of 125I- efflux, dose dependence",[7],dose-dependent stimulation
same,effective dosage,[4],10 to 400 µM
C=C[C@@]1(C)CC(=O)[C@]2(O)[C@@]3(C)[C@@H](O)CCC(C)(C)[C@@H]3[C@H](O)[C@H](OC(C)=O)[C@@]2(C)O1 [forskolin],stimulation of 125I- efflux,"[1]; T84 cells, 20 μM forskolin",stimulation
same,response in 125I- efflux assay,[6],unresponsive
same,125I- efflux in response to agonist,[8],not stimulated
same,activation of the Cl- channel,[9],inability of the channel to be activated
same,activation of CFTR,[10],activate CFTR in T84 cells
dodecylsucrose [DS],"activity as Cl- channel activator on altering saccharide moiety, compared to DM at 100 μM",[1]; T84 cells,markedly reduces the activity
same,"potency relative to DM, tri DM and tetra DM",[1]; T84 cells,"less potent than DM, tri DM and tetra DM"
same,stimulation of 125I- efflux,[1]; T84 cells,stimulate
same,effect on 125I- efflux relative to DM at 100 μM,"[1]; T84 cells, 100 μM",significantly smaller effect than DM
"C[C@@H]1CC[C@@]2(OC1)O[C@H]1[C@@H](O)[C@H]3[C@@H]4CC[C@H]5C[C@@H](O[C@@H]6O[C@H](CO)[C@H](O[C@@H]7O[C@H](CO)[C@@H](O)[C@H](O[C@@H]8OC[C@@H](O)[C@H](O)[C@H]8O)[C@H]7O[C@@H]7O[C@H](CO)[C@H](O)[C@H](O[C@@H]8O[C@H](CO)[C@@H](O)[C@H](O)[C@H]8O)[C@H]7O)[C@H](O)[C@H]6O)[C@H](O)C[C@]5(C)[C@H]4CC[C@]3(C)[C@H]1[C@@H]2C [Digitonin, digitonin, reference compound]",stimulation of 125I- efflux,"[1]; T84 cells, 50 μM",pronounced effect
"C[S+](C)[O-] [Dimethylsulfoxide (DMSO), Dimethylsulfoxide, reference compound]",effect in stimulating 125I- efflux,"[1]; T84 cells, 17.6 mM",no effect
"CCCCCCCCCCCCO[C@@H]1O[C@H](CO)[C@@H](O)[C@H](O)[C@H]1O [DG, dodecylglucoside]","activity as Cl- channel activator on altering saccharide moiety, compared to DM at 100 μM",[1]; T84 cells,markedly reduces the activity
same,effect in stimulating 125I- efflux,"[1]; T84 cells, 100 μM",minimal effect
"C[C@H](CCC(=O)O)C[C@H](C)C[C@H](C)C(=O)/C=C(\O)[C@H](C)C[C@H](C)C/C=C/[C@@H](C)[C@@H](O)[C@@H](C)[C@@H](O)C[C@@H]1CC[C@@](C)([C@H]2CC[C@@](C)([C@@H](C)O)O2)O1 [ionomycin, reference compound]",stimulation of 125I- efflux,"[1]; T84 cells, 1 μM ionomycin",stimulation
same,response in 125I- efflux assay,[6],responds briskly
same,Opening of Ca++-regulated Cl- channels,[8],opened
"CCCCCCCCCCCCCO[C@@H]1O[C@H](CO)[C@@H](OC2OC(CO)C(O)C(O)C2O)[C@H](O)[C@H]1O (stereo in doubt) [tri DM, tridecylmaltoside]",potency as Cl- channel activator among alkylmaltosides tested,[1],most potent
same,cause of 125I- efflux stimulation: cell lysis,[1]; T84 cells,not due to lysis of the cells
same,"potency change on lengthening alkyl chain, DM as reference standard",[1]; T84 cells,markedly increases the potency
same,"stimulation of 125I- efflux, dose dependence","[1]; T84 cells, 10-100 μM",dose-dependent stimulation
same,potency in stimulating 125I- efflux relative to DM,[1]; T84 cells,more potent than DM
same,"increase in 125I- efflux, dose dependence",[6],dose-dependent increase
same,Cl- channel activity as measured by increased 125I- efflux,[2],stimulate
same,Cl- channel activity as measured by increased 125I- efflux,[3],stimulate
same,"stimulation of 125I- efflux, dose dependence",[7],dose-dependent stimulation
same,effective dosage,[4],10 to 400 µM
"CCCCCCCCCCCCOS(=O)(=O)[O-].[Na+] [sodium dodecyl sulfate (SDS), sodium dodecyl sulfate]",release upon cell lysis,[11],precipitous release
"O=C(O)c1cc([N+](=O)[O-])ccc1NCCCc1ccccc1 [NPPB, reference compound]",125I- efflux inhibition,"[1]; T84 cells, blocker of some Cl- channels",inhibits
same,blocking of Cl- channels,[7],blocked
CCCCCCCCO[C@@H]1O[C@H](CO)[C@@H](O)[C@H](O)[C@H]1O [octylglucoside],concentration at which an appreciable effect in stimulating 125I- efflux is shown,[1]; T84 cells,≥ 500 µM
same,"potency relative to DM, tri DM and tetra DM",[1]; T84 cells,"less potent than DM, tri DM and tetra DM"
same,stimulation of 125I- efflux,[1]; T84 cells,stimulate
